# System: infiltration of NK cells into ECM (collagen) toward cancer cells (A549)
# Assay: NK cell infiltration in tumor microenvironment (TME) simulating organ-on-a-chip model
# Format: cell-based
# Conditions: co-treatment with NK cells and M5 versus NK cells alone; 48 hours; high-concentration collagen cell barrier model
# Description: The efficacy as a cancer adjuvant was examined by administering tumor microenvironment (TME) simulating models (organ-on-a-chips) with NK cells and the indicator component M5 for the active ingredient of the present disclosure.
# NK cells, known to have anti-cancer efficacy as immune cells, were examined for a change in infiltration ability into tumor tissues according to whether or not NK cells were co-administered with M5. The qualification criterion was the infiltration ability of immune cells into ECM, which was determined by the infiltration distance of NK cells and whether or not the number of infiltrating cells was increased. Collagen was selected as a representative type of ECM. The cells were seeded into the chips under a […] collagen condition, and after 6 hours and 48 hours, the infiltration of NK cells toward the medium and cancer cell (A549) channels was observed.
# A comparison was made for the infiltration ability of NK cells between the treatment with NK cells alone and the co-treatment with NK cells and M5, for 48 hours in high-concentration collagen cell barrier models.
substance,measurement,value
penta-mannuronic acid sodium salt [M5],infiltration ability of NK cells into cancer cells,enhanced

# Source: patent US20200376011A1, “COMPOSITION FOR TREATING CANCER INCLUDING ALGINATE OLIGOSACCHARIDE AS AN ACTIVE INGREDIENT” (BIO3S, INC, priority 2019, published 2020)
